The text below walks through data of patent US20250197373A1, “SMALL MOLECULE COMPOUND OR SALT THEREOF OR SOLVATE OF THEM, GUANINE NUCLEOTIDE-BINDING PROTEIN G(Q) SUBUNIT ALPHA (GNAQ) INHIBITOR CONTAINING THE SAME AND METHOD FOR TREATING AND/OR PREVENTING CANCER” (INDUSTRIAL TECHNOLOGY RESEARCH INSTITUTE, priority 2023, published 2025).

The term IC50 denotes the concentration that gives 50% inhibition.

For this assay, the system named is MDA-MB-231. Kind of assay: Inhibition of growth of triple-negative breast cancer cells MDA-MB-231 (PrestoBlue). Type of assay: cell-based. As to conditions: Homo sapiens, 168 h, 7 days culture, 2% fetal bovine serum, read-out: Inhibitory activity (evaluated by IC50). The protocol:
Triple-negative breast cancer cells, MDA-MB-231 and MDA-MB-231-OE-GNAQ (T96S) (additionally expressing GNAQ (T96S)) were cultured in L-15 medium and in a temperature-controlled incubator without need of additional offer of 5% carbon dioxide.
1×10^3 of the cells mentioned above were seeded in a 96-well plate, placed in a temperature-controlled incubator and cultured overnight (at least 16 hours).
After overnight incubation, the supernatant was removed. Next, after 200 μL of cell culture medium (containing 2% fetal bovine serum) containing different concentrations of test compound was added to each well of the 96-well plate, the 96-well plate was placed in a 37° C. incubator for 7 days further culture. After that, an additional 30 μL of diluted PrestoBlue™ Cell Viability Reagent (Catalog Number: A13261; Thermo Fisher Scientific) (4 μL stock solution and 26 μL culture medium) was added to each well of the 96-well plate and the reaction was continued for further about 1 hour.
Finally, the fluorescence value at the wavelength of 535/615 nm of each well was read with a plate enzyme immunoassay analyzer, and the inhibitory rate of the compound on triple-negative breast cancer cells were calculated using the following formula.
Moreover, the half maximal inhibitory concentration (IC50) of the compound on the growth of triple-negative breast cancer cells was calculated with the inhibitory rate of compound on triple-negative breast cancer cells at each concentration through the online half maximal inhibitory concentration (IC50) calculation software, IC50 Calculator, provided by AAT Bioquest company on its website (https://www.aatbio.com/tools/ic50-calculator).
Finally, the inhibition of the compound on the growth of triple-negative breast cancer cells was evaluated by the calculated half maximal inhibitory concentration (IC50) of the compound on the growth of triple-negative breast cancer cells.
The inhibition of the compound on the growth of triple-negative breast cancer cells was evaluated by the half maximal inhibitory concentration (IC50) of the compound (one of Compound 1 to Compound 15 prepared above) on the growth of triple-negative breast cancer cells through the human triple-negative breast cancer cell lines MDA-MB-231 and MDA-MB-231-OE-GNAQ (T96S) (additionally expressing GNAQ (T96S)).
Turning to `O=C(Nc1cccc(-c2cccc(-c3ccncc3)n2)c1)Nc1cc(Cl)nc(Cl)c1` [Compound 13], the IC50 is 310 to 2500 nM. Regarding `O=C(Nc1cccc(-c2ccnc(-c3ccc(F)c(F)c3)n2)c1)Nc1cc(Cl)nc(Cl)c1` [Compound 4], the IC50 was in the range of 310 to 2500 nM. Consider `FC(F)(F)c1cccc(-c2cccc(-c3ccc(NC(=S)Nc4cc(Cl)nc(Cl)c4)cc3)n2)c1` [Compound 10], for which the half-inhibitory concentration (IC50) lay within 310 to 2500 nM. As to `O=C(Nc1ccc(-c2cccc(-c3cccc(C(F)(F)F)c3)n2)cc1)Nc1cc(Cl)nc(Cl)c1` [Compound 9], the half-maximal inhibitory concentration (IC50) was 310 to 2500 nM. On to `O=C(Nc1ccc(-c2cccc(-c3ccncc3)n2)cc1)Nc1ccc(Cl)c(C(F)(F)F)c1` [Compound 12], for which the IC50 is 310 to 2500 nM. Consider `O=C(Nc1ccc(-c2nc(-c3ccccc3)ncc2Cl)cc1)Nc1cc(Cl)nc(Cl)c1` [Compound 15], for which the IC50 was 310 to 2500 nM.

As to `O=C(Nc1ccc(-c2ccnc(-c3cccc(C(F)(F)F)c3)n2)cc1)Nc1cc(Cl)nc(Cl)c1` [Compound 7], the IC50 lay within 310 to 2500 nM. For `O=C(Nc1cccc(-c2ccnc(-c3cccc(C(F)(F)F)c3)n2)c1)Nc1cc(Cl)nc(Cl)c1` [Compound 2], the half-inhibitory concentration (IC50) was 310 to 2500 nM.

For the compound `N#Cc1cccc(-c2nccc(-c3cccc(NC(=O)Nc4cc(Cl)nc(Cl)c4)c3)n2)c1` [Compound 3], the IC50 lay in the range of 310 to 2500 nM. The figure for `N#Cc1cccc(-c2cccc(-c3ccc(NC(=S)Nc4cc(Cl)nc(Cl)c4)cc3)n2)c1` [Compound 11] is 310 to 2500 nM; for `O=C(Nc1cccc(-c2ccnc(-c3cccc(C(F)(F)F)c3)n2)c1)c1cc(Cl)nc(Cl)c1` [Compound 5] it is 310 to 2500 nM; for `O=C(Nc1ccc(-c2ccnc(-c3cccc(C(F)(F)F)c3)n2)cc1)Nc1ccc(Cl)c(C(F)(F)F)c1` [Compound 8] it is 310 to 2500 nM. For `O=C(Nc1cccc(-c2cc(-c3cccc(C(F)(F)F)c3)ncn2)c1)Nc1cc(Cl)nc(Cl)c1` [Compound 14], the IC50 was in the range of 310 to 2500 nM. Take `O=C(Nc1cccc(-c2ccnc(-c3ccnc(Cl)c3)n2)c1)Nc1cc(Cl)nc(Cl)c1` [Compound 1]: the IC50 lay in the range of 310 to 2500 nM. Consider `O=C(Nc1ccc(-c2ccnc(-c3ccncc3)n2)cc1)Nc1ccc(Cl)c(C(F)(F)F)c1` [Compound 6], for which the IC50 lay in the range of 2500 to 5000 nM.
